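Cultured in 96-well plates, cells were exposed to test compound for 48 hours across five concentrations. GI50 = concentration required for 50% inhibition of growth.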 Active and inactive are the calls of the source. Rule as the data show it: active = GI50 up to about 1.1 µM and inactive = higher.
Key:
Experiment in all cases: inhibition of tumour cell growth, NCI panel, 48 h
MDA-N = test system: MDA-N
RPMI-8226 = test system: RPMI-8226
NCI/ADR-RES = test system: NCI/ADR-RES
OVCAR-5 = test system: OVCAR-5
MDA-MB-231 = test system: MDA-MB-231
Hs-578T = test system: Hs-578T
786-0 = test system: 786-0
SK-MEL-2 = test system: SK-MEL-2
A498 = test system: A498
HCC 2998 = test system: HCC 2998
PC-3 = test system: PC-3
UACC-257 = test system: UACC-257
CCRF-CEM = test system: CCRF-CEM
Malme-3M = test system: Malme-3M
NCI-H522 = test system: NCI-H522
KM12 = test system: KM12
BT-549 = test system: BT-549
CAKI-1 = test system: CAKI-1
DU-145 = test system: DU-145
NCI-H226 = test system: NCI-H226

CC(C)(C)OC(=O)C(C1NC(C(=O)O)C(C)(C)S1)N1C(=O)c2ccccc2C1=O (stereo unspecified)
GI50 (MDA-N): > 100 µM (inactive)
GI50 (RPMI-8226): > 100 µM (inactive)
GI50 (NCI/ADR-RES): > 100 µM (inactive)
GI50 (OVCAR-5): > 100 µM (inactive)
GI50 (MDA-MB-231): > 100 µM (inactive)
GI50 (Hs-578T): > 100 µM (inactive)
GI50 (786-0): > 100 µM (inactive)
GI50 (SK-MEL-2): > 100 µM (inactive)
GI50 (A498): > 100 µM (inactive)
GI50 (HCC 2998): > 100 µM (inactive)
GI50 (PC-3): > 100 µM (inactive)
GI50 (UACC-257): > 100 µM (inactive)
GI50 (CCRF-CEM): > 100 µM (inactive)
GI50 (Malme-3M): > 100 µM (inactive)
GI50 (NCI-H522): > 100 µM (inactive)
GI50 (KM12): > 100 µM (inactive)
GI50 (BT-549): > 100 µM (inactive)
GI50 (CAKI-1): > 100 µM (inactive)
GI50 (DU-145): > 100 µM (inactive)

O=c1c(Cc2c(O)ccc3ccccc23)nnc2sc(-c3nn4c(=O)c(Cc5c(O)ccc6ccccc56)nnc4s3)nn12
GI50 (MDA-N): > 100 µM (inactive)
GI50 (RPMI-8226): > 100 µM (inactive)
GI50 (NCI/ADR-RES): > 100 µM (inactive)
GI50 (OVCAR-5): > 100 µM (inactive)
GI50 (MDA-MB-231): 32.6 µM (inactive)
GI50 (Hs-578T): 10.8 µM (inactive)
GI50 (786-0): 14.8 µM (inactive)
GI50 (SK-MEL-2): 13.4 µM (inactive)
GI50 (A498): 42.2 µM (inactive)
GI50 (HCC 2998): > 100 µM (inactive)
GI50 (PC-3): > 100 µM (inactive)
GI50 (UACC-257): > 100 µM (inactive)
GI50 (CCRF-CEM): 30.5 µM (inactive)
GI50 (Malme-3M): > 100 µM (inactive)
GI50 (BT-549): 25.4 µM (inactive)
GI50 (CAKI-1): > 100 µM (inactive)
GI50 (DU-145): > 100 µM (inactive)

c1ncc(C23C4C5C6C4C2C6C53)[nH]1 (stereo unspecified)
GI50 (MDA-N): > 100 µM (inactive)
GI50 (RPMI-8226): > 100 µM (inactive)
GI50 (NCI/ADR-RES): > 100 µM (inactive)
GI50 (OVCAR-5): > 100 µM (inactive)
GI50 (MDA-MB-231): > 100 µM (inactive)
GI50 (Hs-578T): > 100 µM (inactive)
GI50 (786-0): > 100 µM (inactive)
GI50 (SK-MEL-2): > 100 µM (inactive)
GI50 (A498): > 100 µM (inactive)
GI50 (HCC 2998): > 100 µM (inactive)
GI50 (PC-3): > 100 µM (inactive)
GI50 (UACC-257): > 100 µM (inactive)
GI50 (CCRF-CEM): > 100 µM (inactive)
GI50 (NCI-H226): > 100 µM (inactive)
GI50 (Malme-3M): > 100 µM (inactive)
GI50 (KM12): > 100 µM (inactive)
GI50 (BT-549): > 100 µM (inactive)
GI50 (CAKI-1): > 100 µM (inactive)
GI50 (DU-145): > 100 µM (inactive)

CC(C(=O)n1ccnc1)N1c2ccccc2Sc2ccccc21 (stereo unspecified)
GI50 (MDA-N): > 100 µM (inactive)
GI50 (RPMI-8226): 65.3 µM (inactive)
GI50 (NCI/ADR-RES): 63.2 µM (inactive)
GI50 (OVCAR-5): 65.3 µM (inactive)
GI50 (MDA-MB-231): 78.3 µM (inactive)
GI50 (Hs-578T): > 100 µM (inactive)
GI50 (786-0): 59.2 µM (inactive)
GI50 (SK-MEL-2): > 100 µM (inactive)
GI50 (A498): 47.2 µM (inactive)
GI50 (PC-3): 55.1 µM (inactive)
GI50 (UACC-257): 79.4 µM (inactive)
GI50 (CCRF-CEM): 84.7 µM (inactive)
GI50 (NCI-H226): 61.9 µM (inactive)
GI50 (Malme-3M): 83.6 µM (inactive)
GI50 (KM12): 71.3 µM (inactive)
GI50 (BT-549): > 100 µM (inactive)
GI50 (DU-145): > 100 µM (inactive)

CCOC(=O)c1ccc(NCC#CCN2CCCCC2)cc1
GI50 (MDA-N): 60.4 µM (inactive)
GI50 (RPMI-8226): > 100 µM (inactive)
GI50 (NCI/ADR-RES): > 100 µM (inactive)
GI50 (OVCAR-5): 83.6 µM (inactive)
GI50 (MDA-MB-231): > 100 µM (inactive)
GI50 (Hs-578T): > 100 µM (inactive)
GI50 (786-0): > 100 µM (inactive)
GI50 (SK-MEL-2): > 100 µM (inactive)
GI50 (A498): > 100 µM (inactive)
GI50 (PC-3): > 100 µM (inactive)
GI50 (CCRF-CEM): 19.7 µM (inactive)
GI50 (NCI-H226): > 100 µM (inactive)
GI50 (Malme-3M): > 100 µM (inactive)
GI50 (KM12): > 100 µM (inactive)
GI50 (BT-549): > 100 µM (inactive)
GI50 (DU-145): > 100 µM (inactive)

Cc1cc2c(c(/C=N/c3ccccc3O)c1)OC1(C=C2)Oc2ccccc2C(=O)N1C (stereo unspecified)
GI50 (MDA-N): 28.2 µM (inactive)
GI50 (RPMI-8226): 21.2 µM (inactive)
GI50 (NCI/ADR-RES): 17.3 µM (inactive)
GI50 (OVCAR-5): 13.2 µM (inactive)
GI50 (MDA-MB-231): 16.3 µM (inactive)
GI50 (Hs-578T): 11.6 µM (inactive)
GI50 (786-0): 14.4 µM (inactive)
GI50 (SK-MEL-2): 19.5 µM (inactive)
GI50 (A498): 18.6 µM (inactive)
GI50 (HCC 2998): 15.8 µM (inactive)
GI50 (PC-3): 17.4 µM (inactive)
GI50 (UACC-257): 14.1 µM (inactive)
GI50 (CCRF-CEM): 17.1 µM (inactive)
GI50 (NCI-H226): 15.4 µM (inactive)
GI50 (KM12): 20.8 µM (inactive)
GI50 (BT-549): 18.7 µM (inactive)
GI50 (CAKI-1): 13.3 µM (inactive)
GI50 (DU-145): 14.9 µM (inactive)

OC[C@@H](O)[C@H](O)[C@@H](O)/C=N/Nc1ccc(Cl)nn1
GI50 (MDA-N): > 100 µM (inactive)
GI50 (RPMI-8226): > 100 µM (inactive)
GI50 (NCI/ADR-RES): > 100 µM (inactive)
GI50 (OVCAR-5): > 100 µM (inactive)
GI50 (MDA-MB-231): > 100 µM (inactive)
GI50 (Hs-578T): > 100 µM (inactive)
GI50 (786-0): > 100 µM (inactive)
GI50 (SK-MEL-2): > 100 µM (inactive)
GI50 (A498): > 100 µM (inactive)
GI50 (HCC 2998): > 100 µM (inactive)
GI50 (PC-3): > 100 µM (inactive)
GI50 (UACC-257): > 100 µM (inactive)
GI50 (CCRF-CEM): > 100 µM (inactive)
GI50 (Malme-3M): > 100 µM (inactive)
GI50 (NCI-H522): > 100 µM (inactive)
GI50 (KM12): > 100 µM (inactive)
GI50 (BT-549): > 100 µM (inactive)
GI50 (CAKI-1): > 100 µM (inactive)
GI50 (DU-145): > 100 µM (inactive)

COc1ccccc1N1C(=O)/C(=C\c2cccc(Oc3ccccc3)c2)SC1c1ccccc1 (stereo unspecified)
GI50 (MDA-N): 23.9 µM (inactive)
GI50 (RPMI-8226): 24.6 µM (inactive)
GI50 (NCI/ADR-RES): 59.6 µM (inactive)
GI50 (OVCAR-5): > 100 µM (inactive)
GI50 (MDA-MB-231): > 100 µM (inactive)
GI50 (Hs-578T): 39.4 µM (inactive)
GI50 (786-0): 39.2 µM (inactive)
GI50 (SK-MEL-2): 29.9 µM (inactive)
GI50 (A498): > 100 µM (inactive)
GI50 (HCC 2998): 25.7 µM (inactive)
GI50 (PC-3): 58.5 µM (inactive)
GI50 (UACC-257): 31.3 µM (inactive)
GI50 (Malme-3M): 37.6 µM (inactive)
GI50 (NCI-H522): 24.1 µM (inactive)
GI50 (KM12): 42.6 µM (inactive)
GI50 (BT-549): 29.8 µM (inactive)
GI50 (CAKI-1): > 100 µM (inactive)
GI50 (DU-145): 57.5 µM (inactive)

CSc1ccc(/C=C2\N=C(c3ccccc3)N(c3nc4c(Cl)cc(Cl)cc4s3)C2=O)cc1
GI50 (MDA-N): 17 µM (inactive)
GI50 (RPMI-8226): 22.5 µM (inactive)
GI50 (NCI/ADR-RES): 25.2 µM (inactive)
GI50 (OVCAR-5): 31.1 µM (inactive)
GI50 (MDA-MB-231): 18.9 µM (inactive)
GI50 (Hs-578T): 21.9 µM (inactive)
GI50 (786-0): 25.9 µM (inactive)
GI50 (SK-MEL-2): 20.2 µM (inactive)
GI50 (A498): 17 µM (inactive)
GI50 (HCC 2998): 29 µM (inactive)
GI50 (PC-3): 20.4 µM (inactive)
GI50 (UACC-257): 25.2 µM (inactive)
GI50 (CCRF-CEM): 7.74 µM (inactive)
GI50 (KM12): 23 µM (inactive)
GI50 (BT-549): 21.5 µM (inactive)
GI50 (CAKI-1): 31 µM (inactive)
GI50 (DU-145): 46 µM (inactive)

COc1ccc2c(c1)-c1[nH]c3ccc(OC)cc3c1CC2
GI50 (MDA-N): 14.7 µM (inactive)
GI50 (RPMI-8226): 15.6 µM (inactive)
GI50 (NCI/ADR-RES): 11.4 µM (inactive)
GI50 (OVCAR-5): 14.5 µM (inactive)
GI50 (MDA-MB-231): 17.3 µM (inactive)
GI50 (Hs-578T): 13.4 µM (inactive)
GI50 (786-0): 17.5 µM (inactive)
GI50 (SK-MEL-2): 14.5 µM (inactive)
GI50 (HCC 2998): 15.6 µM (inactive)
GI50 (PC-3): 11.4 µM (inactive)
GI50 (UACC-257): 17.7 µM (inactive)
GI50 (CCRF-CEM): 14.3 µM (inactive)
GI50 (NCI-H226): 11.8 µM (inactive)
GI50 (Malme-3M): 15 µM (inactive)
GI50 (NCI-H522): 4.55 µM (inactive)
GI50 (KM12): 4.86 µM (inactive)
GI50 (BT-549): 17.7 µM (inactive)
GI50 (CAKI-1): 18.8 µM (inactive)
GI50 (DU-145): 17.1 µM (inactive)

COC(=O)c1c2c(c3[nH]c4ccccc4c3c1C(=O)OC)C(=O)C1=C(C2=O)C2(Cl)C(Cl)C(Cl)C1(Cl)C2(Cl)Cl (stereo unspecified)
GI50 (MDA-N): 0.6 µM (active)
GI50 (RPMI-8226): 1.19 µM (inactive)
GI50 (NCI/ADR-RES): 2.62 µM (inactive)
GI50 (OVCAR-5): 4.69 µM (inactive)
GI50 (MDA-MB-231): 1.85 µM (inactive)
GI50 (Hs-578T): 3.13 µM (inactive)
GI50 (786-0): 2.68 µM (inactive)
GI50 (A498): 0.432 µM (active)
GI50 (HCC 2998): 2.91 µM (inactive)
GI50 (PC-3): 1.86 µM (inactive)
GI50 (CCRF-CEM): 1.89 µM (inactive)
GI50 (Malme-3M): 1.82 µM (inactive)
GI50 (NCI-H522): 1.38 µM (inactive)
GI50 (KM12): 2.54 µM (inactive)
GI50 (BT-549): 1.96 µM (inactive)
GI50 (CAKI-1): 3.18 µM (inactive)
GI50 (DU-145): 2.07 µM (inactive)
